# Key:
# [1] = In vitro liver microsome stability assay; format: in vitro ADME; settings: liver microsomes, pH 7.4; human, 0.2 mg/mL liver microsomal protein, 1 μM test substance, 37° C.; read-out: Liver microsome stability (species: human): T½
# Procedure: The test substance and the positive control substance verapamil were respectively dissolved with DMSO to 10 mM as a stock solution. The above 10 mM stock solution was diluted with 70% acetonitrile aqueous solution to a concentration of 0.25 mM.
# An NADPH regeneration system finally containing concentrations of 6.5 mM NADP, 16.5 mM G-6-P, 3 U/mL G-6-PDH, and 3.3 mM MgCl was prepared.
# Stopping solution was an acetonitrile solution containing tolbutamide and propranolol (both internal standards).
# Phosphate buffer was a 100 mM K3PO4 (pH=7.4) buffer containing 3.3 mM MgCl2.
# Liver microsomal incubation system was a 100 mM phosphate buffer containing 0.2 mg/mL liver microsomal protein and 1 μM test substance/positive control.
# 80 μL of the mixed solution from the incubation system was taken. 400 μL of the stopping solution was added to precipitate protein. The mixture was vortexed and added with 20 μL of NADPH regeneration system as the sample at 0 min.
# 130 μL of NADPH regeneration system was added to the remaining 520 μL of protein-drug mixed solution. The mixture was mixed well, and incubated. The final incubation system was 650 μL, containing 0.2 mg/mL liver microsomal protein, 1 μM test substance/positive control, 1.3 mM NADP, 3.3 mM G-6-P, and 0.6 U/mL G-6-PDH.
# The mixed system was slowly shaken and incubated in a water bath at 37° C. 100 μL of the incubation solution was taken at 5, 10, 30, and 60 min, respectively, and added into a new 96-well plate with 400 μL of stopping solution in each well. The mixture in each well was mixed well, and the protein was precipitated by centrifuging at 4000×g for 15 minutes at 4° C.
# 100 μL of the supernatant was taken, and diluted with water at a ratio of 1:2. The samples were analyzed by LC-MS/MS.
# THRβ = target: T1, THRβ (Homo sapiens, UniProt P10828); assay: THRβ binding assay (time-resolved FRET coactivator peptide recruitment); format: biochemical; settings: THRβ-LBD/RXRα, SRC2-2 coactivator peptide recruitment, 4 hours at room temperature
# T1 construct: RXRα and THRβ-LBD Eu-anti-GST antibody with GST tag
# T1 sequence (P10828 217-461 limits assumed, other chains not shown): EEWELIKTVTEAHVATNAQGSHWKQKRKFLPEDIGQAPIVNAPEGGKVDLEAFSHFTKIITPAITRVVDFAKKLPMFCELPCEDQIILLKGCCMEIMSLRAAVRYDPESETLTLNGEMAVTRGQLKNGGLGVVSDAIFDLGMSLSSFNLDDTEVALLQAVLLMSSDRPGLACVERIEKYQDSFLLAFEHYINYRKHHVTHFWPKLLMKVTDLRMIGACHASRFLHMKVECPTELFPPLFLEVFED
# T1 sequence (P19793 whole entry partner, other chains not shown, the tested form may be a part): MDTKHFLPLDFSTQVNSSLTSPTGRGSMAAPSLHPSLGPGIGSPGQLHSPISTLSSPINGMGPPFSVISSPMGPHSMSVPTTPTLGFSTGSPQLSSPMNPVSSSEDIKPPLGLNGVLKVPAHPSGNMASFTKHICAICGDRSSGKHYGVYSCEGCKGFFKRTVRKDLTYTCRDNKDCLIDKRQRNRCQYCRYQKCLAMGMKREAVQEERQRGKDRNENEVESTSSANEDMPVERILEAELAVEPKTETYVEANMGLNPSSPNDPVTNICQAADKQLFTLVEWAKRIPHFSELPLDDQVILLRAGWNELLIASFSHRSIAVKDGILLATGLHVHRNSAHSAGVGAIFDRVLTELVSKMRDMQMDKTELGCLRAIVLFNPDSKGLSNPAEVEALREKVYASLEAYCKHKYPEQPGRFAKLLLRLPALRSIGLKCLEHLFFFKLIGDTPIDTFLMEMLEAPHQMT
# Procedure: Experimental methods: In vitro analysis of the agonistic effect of compounds on THRβ was performed using time-resolved fluorescence resonance energy transfer coactivator peptide recruitment assays. The assay used biotin-SRC2-2 coactivator peptide, streptavidin-d2, RXRα and THRβ-LBD Eu-anti-GST antibody with GST tag. Eu-anti-GST antibody indirectly labeled THRβ-LBD by binding to the GST tag. Streptavidin-d2 indirectly labeled the SRC2-2 coactivator peptide by binding to the biotin tag. In the presence of RXRα, THRβ-LBD can form heterodimer THRβ-LBD/RXRα with it. […] According to the effect of different concentrations of the compound on the activity of THRβ, the agonistic ability of the compound can be evaluated.
# The detailed procedure is as follows: • a. 100× reference compound or compound was prepared with DMSO, and equally diluted by 1:3. • b. 100× gradiently diluted reference compound or compound was diluted with 1× reaction buffer to 4×, which was then added to an assay plate. • c. A mixed solution of 4× THRβ-LBD and 4× RXRα was prepared with 1× reaction buffer, and added to the assay plate. • d. A mixed solution of 2× biotin-SRC2-2, 2× Eu-anti-GST, and 2× streptavidin-d2 was prepared with 1× reaction buffer, and added to the assay plate. • e. The assay plate was centrifuged at 1000 rpm for 1 min, and incubated at room temperature in the dark for 4 hours. • f.
# THRα = target: T2, THRα (Homo sapiens, UniProt P10827); assay: THRα binding assay (as the THRβ assay, THRβ replaced with THRα); format: biochemical; settings: for EC50: THRα in place of THRβ; for THRα/β selectivity (fold): ratio of THRα EC50 to THRβ EC50
# T2 construct: GST
# T2 sequence (P10827 1-410 isoform P10827-2, other chains not shown): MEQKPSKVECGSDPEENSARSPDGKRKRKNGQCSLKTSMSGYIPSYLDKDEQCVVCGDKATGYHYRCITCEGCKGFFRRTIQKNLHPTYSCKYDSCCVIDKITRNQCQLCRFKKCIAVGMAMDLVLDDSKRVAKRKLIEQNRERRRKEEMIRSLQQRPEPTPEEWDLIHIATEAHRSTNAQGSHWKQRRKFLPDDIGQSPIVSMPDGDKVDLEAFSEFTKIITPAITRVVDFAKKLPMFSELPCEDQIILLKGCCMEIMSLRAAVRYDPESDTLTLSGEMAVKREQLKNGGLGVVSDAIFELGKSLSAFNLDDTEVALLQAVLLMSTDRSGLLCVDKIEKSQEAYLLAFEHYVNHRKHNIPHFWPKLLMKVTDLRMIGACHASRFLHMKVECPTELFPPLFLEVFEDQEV
# T2 sequence (P19793 whole entry partner, other chains not shown): as the sequence (P19793 whole entry partner, other chains not shown, the tested form may be a part) above
Compound,half-life at 1 μM [1] [min],EC50 (THRβ) [nM],EC50 (THRα) [nM],THRα/β selectivity (fold) (THRα)
"N#Cc1nn(-c2cc(Cl)c(Oc3ccc(=O)n(C4CCCC4=O)c3)c(Cl)c2)c(=O)[nH]c1=O (stereo not shown) [Example 4, 2-(3,5-dichloro-4-((6-oxo-1-(2-oxocyclopentyl)-1,6-dihydropyridin-3-yl)oxy)phenyl)-3,5-dioxo-2,3,4,5-tetrahydro-1,2,4-triazine-6-carbonitrile]",110,561,,
"N#Cc1nn(-c2cc(Cl)c(Oc3cc(Cl)c(=O)n(C4CCCC4)c3)c(Cl)c2)c(=O)[nH]c1=O [Example 15, 2-(3,5-Dichloro-4-[(5-chloro-1-cyclopentyl-6-oxo-1,6-dihydropyridin-3-yl)oxy]phenyl) -3,5-dioxo-2,3,4,5-tetrahydro-1,2,4-triazine-6-carbonitrile]",11.5,793,,
"N#Cc1nn(-c2cc(Cl)c(Oc3ccc(=O)n(-c4ccccc4)c3)c(Cl)c2)c(=O)[nH]c1=O [Example 20, 2-(3,5-dichloro-4-((6-oxo-1-phenyl-1,6-dihydropyridin-3-yl)oxy)phenyl)-3,5-dioxo-2,3,4,5-tetrahydro-1,2,4-triazine-6-carbonitrile]",> 120,88,4180,47.5
"Cc1cc(Oc2c(Cl)cc(-n3nc(C#N)c(=O)[nH]c3=O)cc2Cl)cn(C2CCCC2)c1=O [Example 17, 2-(3,5-Dichloro-4-[(1-cyclopentyl-5-methyl-6-oxo-1,6-dihydropyridin-3-yl)oxy]phenyl) -3,5-dioxo-2,3,4,5-tetrahydro-1,2,4-triazine-6-carbonitrile]",3.2,450,,
"N#Cc1nn(-c2cc(Cl)c(Oc3ccc(=O)n(C4CC4)c3)c(Cl)c2)c(=O)[nH]c1=O [Example 10, 2-(3,5-Dichloro-4-((1-cyclopropyl-6-oxo-1,6-dihydropyridin-3-yl)oxy)phenyl)-3,5-diox o-2,3,4,5-tetrahydro-1,2,4-triazine-6-carbonitrile]",> 120,107,,
"CC(C)Cn1cc(Oc2c(Cl)cc(-n3nc(C#N)c(=O)[nH]c3=O)cc2Cl)ccc1=O [Example 6, 2-(3,5-Dichloro-4-[(1-(2-methylpropyl)-6-oxo-1,6-dihydropyridin-3-yl)oxy]phenyl)-3,5-dioxo-2,3,4,5-tetrahydro-1,2,4-triazine-6-carbonitrile]",,100,2030,20.3
"N#Cc1nn(-c2cc(Cl)c(Oc3cc(F)c(=O)n(C4CCCC4)c3)c(Cl)c2)c(=O)[nH]c1=O [Example 16, 2-(3,5-Dichloro-4-((1-cyclopentyl-5-fluoro-6-oxo-1,6-dihydropyridin-3-yl)oxy)phenyl) -3,5-dioxo-2,3,4,5-tetrahydro-1,2,4-triazine-6-carbonitrile]",5.1,370,,
[2H]C1(n2cc(Oc3c(Cl)cc(-n4nc(C#N)c(=O)[nH]c4=O)cc3Cl)ccc2=O)CCCC1 [Example 14],4.6,30,600,20.0

# The next compounds have a lower EC50 (THRβ) than those just listed; values first:
half-life at 1 μM [1] [min],EC50 (THRβ) [nM],EC50 (THRα) [nM],THRα/β selectivity (fold) (THRα),Compound
62.8,23,290,12.6,"N#Cc1nn(-c2cc(Cl)c(Oc3ccc(=O)n(C4CCC4)c3)c(Cl)c2)c(=O)[nH]c1=O [Example 3, 2-(3,5-dichloro-4-[(1-cyclobutyl-6-oxo-1,6-dihydropyridin-3-yl)oxy]phenyl)-3,5-dioxo-2,3,4,5-tetrahydro-1,2,4-triazine-6-carbonitrile]"
,23,810,35.2,"N#Cc1nn(-c2cc(Cl)c(Oc3ccc(=O)n(-c4cccc(OC(F)(F)F)c4)c3)c(Cl)c2)c(=O)[nH]c1=O [Example 24, 2-(3,5-Dichloro-4-((6-oxo-1-(3-(trifluoromethoxy)phenyl)-1,6-dihydropyridin-3-yl)oxy)phenyl)-3,5-dioxo-2,3,4,5-tetrahydro-1,2,4-triazine-6-carbonitrile]"
2.1,20,,,"N#Cc1nn(-c2cc(Cl)c(Oc3ccc(=O)n(CC4CCCC4)c3)c(Cl)c2)c(=O)[nH]c1=O [Example 5, 2-(3,5-Dichloro-4-((1-(cyclopentylmethyl)-6-oxo-1,6-dihydropyridin-3-yl)oxy)phenyl) -3,5-dioxo-2,3,4,5-tetrahydro-1,2,4-triazine-6-carbonitrile]"
> 120,20,669,33.5,"N#Cc1nn(-c2cc(Cl)c(Oc3ccc(=O)n(-c4cccc(F)c4)c3)c(Cl)c2)c(=O)[nH]c1=O [Example 22, 2-(3,5-Dichloro-4-((1-(3-fluorophenyl)-6-oxo-1,6-dihydropyridin-3-yl)oxy)phenyl)-3,5-dioxo-2,3,4,5-tetrahydro-1,2,4-triazine-6-carbonitrile]"
4.4,18,,,N#Cc1nn(-c2cc(Cl)c(Oc3ccc(=O)n(C4CCCC4)c3)c(Cl)c2)c(=O)[nH]c1=O [Example 12]
,18,351,19.5,"Cc1nn(-c2cc(Cl)c(Oc3ccc(=O)n(-c4ccccc4)c3)c(Cl)c2)c(=O)[nH]c1=O [Example 36, 2-(3,5-Dichloro-4-((6-oxo-1-phenyl-1,6-dihydropyridin-3-yl)oxy)phenyl)-6-methyl-1,2,4-triazine-3,5(2H, 4H)-dione]"
41.6,17,236,13.9,"N#Cc1nn(-c2cc(Cl)c(Oc3ccc(=O)n(C4=CCCC4)c3)c(Cl)c2)c(=O)[nH]c1=O [Example 11, 2-(3,5-Dichloro-4-((1-(cyclopentyl-1-en-1-yl)-6-oxo-1,6-dihydropyridin-3-yl)oxy)phenyl)-3,5-dioxo-2,3,4,5-tetrahydro-1,2,4-triazine-6-carbonitrile]"
7,12,,,"N#Cc1nn(-c2cc(Cl)c(Oc3ccc(=O)n(C4CCCCC4)c3)c(Cl)c2)c(=O)[nH]c1=O [Example 9, 2-(3,5-Dichloro-4-((1-cyclohexyl-6-oxo-1,6-dihydropyridin-3-yl)oxy)phenyl)-3,5-dioxo-2,3,4,5-tetrahydro-1,2,4-triazine-6-carbonitrile]"
,9,696,72.5,"Cc1cc(C)cc(-n2cc(Oc3c(Cl)cc(-n4nc(CF)c(=O)[nH]c4=O)cc3Cl)ccc2=O)c1 [Example 42, 2-(3,5-Dichloro-4-((1-(3,5-dimethylphenyl)-6-oxo-1,6-dihydropyridin-3-yl)oxy)phenyl) -6-(fluoromethyl)-1,2,4-triazine-3,5(2H, 4H)-dione]"
> 120,6,220,36.7,"O=c1[nH]c(=O)n(-c2cc(Cl)c(Oc3ccc(=O)n(-c4ccccc4)c3)c(Cl)c2)nc1CF [Example 35, 2-(3,5-dichloro-4-((6-oxo-1-phenyl-1,6-dihydropyridin-3-yl)oxy)phenyl)-6-(fluoromethyl)-1,2,4-triazine-3,5(2H, 4H)-dione]"

# Reference: patent publication US20240109863A1, “2-PYRIDONE DERIVATIVE, AND PREPARATION METHOD THEREFOR AND PHARMACEUTICAL APPLICATION THEREOF” (KPC PHARMACEUTICALS, INC, priority 2020, published 2024)
